According to patent publication US6355799B1, “Substituted benzene compounds, process for their preparation, and herbicidal and defoliant compositions containing them” (ISK Americas Incorporated, priority 1997, dated 2002):

Key:
Format in all cases: in vivo
[1] = test system: redroot pigweed (Amaranthus retroflexus, AMARE); assay: Pre-emerge test, greenhouse herbicide activity screening; settings: phytotoxicity rating 0-100, 14 days after application
How it was run: (§1)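 Compounds in acetone were track-sprayed at 187 l/ha, 15–1000 g ai/ha, onto sandy loam pots. Pre-emerge seeds were sown one day before spraying, with surface watering afterwards. Post-emerge plants were at the 2–3 leaf stage and sprayed with 0.25% v/v non-ionic surfactant. Injury was rated 0–100 at 14 days.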

[2] = test system: field corn (Zea mays L., var. Dekalb 535, CORN); assay: Post-emerge test, crop safety; settings: post-emerge, 14 days after application, rating scale 0-100
How it was run: (§2)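 Applied at 15–1000 g ai/ha from acetone in 187 l/ha spray volume. Post-emergence applications included 0.25% v/v non-ionic surfactant and reached plants sown 8–21 days before. Pre-emergence applications were incorporated by surface watering. Efficacy or crop damage was rated on a 0–100 scale after 14 days.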

[3] = test system: upland rice (Oryza sp., var. Tebonnet, RICE); assay: Post-emerge test, crop safety; settings: post-emerge, 14 days after application, rating scale 0-100
How it was run: as §2

[4] = test system: lambsquarters (Chenopodium album, CHEAL); assay: Pre-emerge test, greenhouse herbicide activity screening; settings: phytotoxicity rating 0-100, 14 days after application
How it was run: as §2

[5] = test system: large crabgrass (Digitaria sanguinalis, DIGSA); assay: as above; settings: phytotoxicity rating 0-100, 14 days after application
How it was run: as §2

[6] = test system: barnyardgrass (Echinochloa crus-galli, ECHCG); assay: as above; settings: phytotoxicity rating 0-100, 14 days after application
How it was run: as §2

[7] = test system: ivyleaf morningglory (Ipomoea hederacea, IPOHE); assay: as above; settings: phytotoxicity rating 0-100, 14 days after application
How it was run: as §2

[8] = test system: velvetleaf (Abutilon theophrasti, ABUTH); assay: as above; settings: phytotoxicity rating 0-100, 14 days after application
How it was run: as §2

[9] = test system: sicklepod (Cassia obtusifolia, CASOB); assay: as above; settings: phytotoxicity rating 0-100, 14 days after application
How it was run: as §2

[10] = test system: johnsongrass (Sorghum halepense, SORHA); assay: as above; settings: phytotoxicity rating 0-100, 14 days after application
How it was run: as §2

[11] = test system: green foxtail (Setaria viridis, SETVI); assay: as above; settings: phytotoxicity rating 0-100, 14 days after application
How it was run: as §2

[12] = test system: lambsquarters (Chenopodium album, CHEAL); assay: Post-emerge test, greenhouse herbicide activity screening; settings: post-emerge, 14 days after application, rating scale 0-100
How it was run: (§3)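 Compounds in acetone were track-sprayed at 15-1000 g ai/ha (187 l/ha) on sandy loam pots: pre-emerge one day after seeding, post-emerge at 2-3 leaf stage with 0.25% v/v non-ionic surfactant. Phytotoxicity was rated 14 days later on a 0 (no damage) to 100 (complete death) scale.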

[13] = test system: large crabgrass (Digitaria sanguinalis, DIGSA); assay: as above; settings: post-emerge, 14 days after application, rating scale 0-100
How it was run: as §3

[14] = test system: barnyardgrass (Echinochloa crus-galli, ECHCG); assay: as above; settings: post-emerge, 14 days after application, rating scale 0-100
How it was run: as §3

[15] = test system: redroot pigweed (Amaranthus retroflexus, AMARE); assay: as above; settings: post-emerge, 14 days after application
How it was run: as §3

[16] = test system: ivyleaf morningglory (Ipomoea hederacea, IPOHE); assay: as above; settings: post-emerge, 14 days after application, rating scale 0-100
How it was run: as §3

[17] = test system: velvetleaf (Abutilon theophrasti, ABUTH); assay: as above; settings: post-emerge, 14 days after application, rating scale 0-100
How it was run: as §3

[18] = test system: sicklepod (Cassia obtusifolia, CASOB); assay: as above; settings: post-emerge, 14 days after application, rating scale 0-100
How it was run: as §3

[19] = test system: johnsongrass (Sorghum halepense, SORHA); assay: as above; settings: post-emerge, 14 days after application, rating scale 0-100
How it was run: as §3

[20] = test system: green foxtail (Setaria viridis, SETVI); assay: as above; settings: post-emerge, 14 days after application, rating scale 0-100
How it was run: as §3

[21] = test system: field corn (Zea mays L., var. Dekalb 535, CORN); assay: Pre-emerge test, crop safety; settings: crop damage rating 0-100, 14 days after application
How it was run: as §1

[22] = test system: upland rice (Oryza sp., var. Tebonnet, RICE); assay: Pre-emerge test, crop safety; settings: crop damage rating 0-100, 14 days after application
How it was run: as §1

Cn1c(C(F)(F)F)cc(=O)n(-c2c(F)cc(Cl)c(OCC#N)c2NC(=O)OCc2ccccc2)c1=O [4-23]
Pre-emerge Herbicidal Activity AMARE ([1]; 63 g ai/ha): 100 | Pre-emerge Herbicidal Activity AMARE ([1]; 250 g ai/ha): 100 | phytotoxicity rating CORN (crop damage) ([2]; 63 g ai/ha): 35 | phytotoxicity rating CORN (crop damage) ([2]; 250 g ai/ha): 80 | phytotoxicity rating RICE (crop damage) ([3]; 63 g ai/ha): 60 | phytotoxicity rating RICE (crop damage) ([3]; 250 g ai/ha): 80 | Pre-emerge Herbicidal Activity CHEAL ([4]; 63 g ai/ha): 100 | Pre-emerge Herbicidal Activity CHEAL ([4]; 250 g ai/ha): 100 | Pre-emerge Herbicidal Activity DIGSA ([5]; 63 g ai/ha): 80 | Pre-emerge Herbicidal Activity DIGSA ([5]; 250 g ai/ha): 100 | Pre-emerge Herbicidal Activity ECHCG ([6]; 63 g ai/ha): 80 | Pre-emerge Herbicidal Activity ECHCG ([6]; 250 g ai/ha): 95 | Pre-emerge Herbicidal Activity IPOHE ([7]; 63 g ai/ha): 100 | Pre-emerge Herbicidal Activity IPOHE ([7]; 250 g ai/ha): 80 | Pre-emerge Herbicidal Activity ABUTH ([8]; 63 g ai/ha): 100 | Pre-emerge Herbicidal Activity ABUTH ([8]; 250 g ai/ha): 100 | Pre-emerge Herbicidal Activity CASOB ([9]; 63 g ai/ha): 80 | Pre-emerge Herbicidal Activity CASOB ([9]; 250 g ai/ha): 100 | Pre-emerge Herbicidal Activity SORHA ([10]; 63 g ai/ha): 70 | Pre-emerge Herbicidal Activity SORHA ([10]; 250 g ai/ha): 90 | Pre-emerge Herbicidal Activity SETVI ([11]; 63 g ai/ha): 80 | Pre-emerge Herbicidal Activity SETVI ([11]; 250 g ai/ha): 100 | phytotoxicity rating CHEAL ([12]; 63 g ai/ha): 80 | phytotoxicity rating CHEAL ([12]; 250 g ai/ha): 100 | phytotoxicity rating DIGSA ([13]; 63 g ai/ha): 10 | phytotoxicity rating DIGSA ([13]; 250 g ai/ha): 40 | phytotoxicity rating ECHCG ([14]; 63 g ai/ha): 20 | phytotoxicity rating ECHCG ([14]; 250 g ai/ha): 60 | phytotoxicity rating AMARE ([15]; 63 g ai/ha, rating scale 0-100 (0 no damage, 100 complete death)): 100 | phytotoxicity rating AMARE ([15]; 250 g ai/ha, rating scale 0-100): 100 | phytotoxicity rating IPOHE ([16]; 63 g ai/ha): 100 | phytotoxicity rating IPOHE ([16]; 250 g ai/ha): 100 | phytotoxicity rating ABUTH ([17]; 63 g ai/ha): 100 | phytotoxicity rating ABUTH ([17]; 250 g ai/ha): 100 | phytotoxicity rating CASOB ([18]; 63 g ai/ha): 80 | phytotoxicity rating CASOB ([18]; 250 g ai/ha): 100 | phytotoxicity rating SORHA ([19]; 63 g ai/ha): 10 | phytotoxicity rating SORHA ([19]; 250 g ai/ha): 50 | phytotoxicity rating SETVI ([20]; 63 g ai/ha): 40 | phytotoxicity rating SETVI ([20]; 250 g ai/ha): 70 | Pre-emerge Herbicidal Activity CORN ([21]; 63 g ai/ha): 35 | Pre-emerge Herbicidal Activity CORN ([21]; 250 g ai/ha): 90 | Pre-emerge Herbicidal Activity RICE ([22]; 63 g ai/ha): 60 | Pre-emerge Herbicidal Activity RICE ([22]; 250 g ai/ha): 90
